Experimental data from patent US20260097137A1, “FLUORESCENT PROBE COMPOUNDS FOR TUMOR TARGETING IMAGING, AND SYNTHESIS METHOD THEREFOR” (HEBEI MEDICAL UNIVERSITY, priority 2023, published 2026).
Values belong to the compound of their own block, whether it stands above or below them.

How the values were obtained:
folate receptors = settings: background statement; cited from earlier work
FRα = molecular target: T1, FRα (Homo sapiens, UniProt P15328); assay: In vitro affinity assay of GT-NIR series probes by flow cytometry, KB cells; format: cell-based; settings: 500 nM, 1 hour, order GT-NIR-5 > GT-NIR-4 > GT-NIR-1
T1 construct: endogenous in cells; host or cells: KB cells
T1 sequence (P15328 25-234): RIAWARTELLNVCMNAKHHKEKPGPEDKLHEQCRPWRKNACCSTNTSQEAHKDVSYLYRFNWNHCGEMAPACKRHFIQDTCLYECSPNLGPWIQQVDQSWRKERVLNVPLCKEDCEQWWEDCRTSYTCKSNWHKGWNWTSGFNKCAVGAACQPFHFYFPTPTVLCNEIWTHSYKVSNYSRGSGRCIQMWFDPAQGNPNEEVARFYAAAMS
Experimental: (§1) To compare the targeting affinity of different compounds in the GT-NIR series for folate receptors, FR^+ KB cells and M2 macrophages were seeded in 6-well plates at a density of 1×10^6 cells per well. After 24 hours of culture, the medium was replaced with folate-free fresh medium as a blank control. IR783 (500 nM) was added to exclude false-positive effects. Media containing GT-NIR series compounds (500 nM) were added to different wells and incubated for 1 hour. The cells were then digested with trypsin, washed three times with PBS (pH=7.4), and centrifuged (2000 rpm, 5 minutes) to remove unbound probes. The cells were resuspended in […] PBS, stored in light-protected BD Falcon tubes, and analyzed by flow cytometry. Statistical data were processed using FlowJo software (FIG. 6 and FIG. 7).

FRβ = molecular target: T2, FRβ (Homo sapiens, UniProt P14207); assay: In vitro affinity assay of GT-NIR series probes by flow cytometry, M2 macrophages; format: cell-based; settings: 500 nM, 1 hour, order GT-NIR-5 > GT-NIR-4 > GT-NIR-1
T2 construct: endogenous in cells
T2 sequence (P14207 17-230, species assumed): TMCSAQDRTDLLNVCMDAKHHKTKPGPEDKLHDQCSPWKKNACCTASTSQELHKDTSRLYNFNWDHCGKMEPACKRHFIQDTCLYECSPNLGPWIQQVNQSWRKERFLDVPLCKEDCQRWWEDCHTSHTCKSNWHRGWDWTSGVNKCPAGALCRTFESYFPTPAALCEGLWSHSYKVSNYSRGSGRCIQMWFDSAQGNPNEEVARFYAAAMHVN
Experimental: as §1

[1] = test system: tumors with high folate receptor expression; settings: e.g., ovarian cancer, non-small cell lung cancer; background statement; cited from earlier work
A549 cells = assay: In vitro fluorescence microscopy assay, FR- A549 cells; format: cell-based; settings: probe 1 μM, 30 minutes
Experimental: (§2) To investigate the targeting capability of compound GT-NIR-1 toward folate receptor-expressing cells and its subcellular localization, FR^+ KB cells, FR^− A549 cells, FR^+ M2-type macrophages, and FR^− M1-type macrophages were seeded in confocal-specific culture dishes at a density of 3×10^5 cells per dish. The cells were cultured at 37° C. under 5% CO2 for 24 hours. Subsequently, the cells were incubated with GT-NIR-1 (1 μM) for 30 minutes. For competitive binding assays, KB cells and M2 macrophages were co-treated with a 100-fold excess of folic acid (100 μM) and GT-NIR-1 (1 μM) for 30 minutes. After incubation, all cells were washed three times with PBS (pH=7.4). Fluorescence was excited at 775 nm, and cellular fluorescence imaging was observed using confocal fluorescence microscopy (FIG. 4 and FIG. 5).

M1 macrophages = assay: In vitro fluorescence microscopy assay, FR- M1-type macrophages; format: cell-based; settings: probe 1 μM, 30 minutes
Experimental: as §2

FRβ (in M2 macrophages) = molecular target: T3, FRβ (in M2 macrophages) (Homo sapiens, UniProt P14207); assay: In vitro fluorescence microscopy assay, FR+ M2-type macrophages; format: cell-based; settings: probe 1 μM, 30 minutes, excitation 775 nm
T3 construct: endogenous in cells
T3 sequence (P14207 17-230, species assumed): as above
Experimental: as §2

FRα (in KB cells) = molecular target: T4, FRα (in KB cells) (Homo sapiens, UniProt P15328); assay: In vitro fluorescence microscopy assay, FR+ KB cells; format: cell-based; settings: probe 1 μM, 30 minutes, excitation 775 nm
T4 construct: endogenous in cells; host or cells: KB cells
T4 sequence (P15328 25-234): as the sequence (P15328 25-234) above
Experimental: as §2

[2] = test system: FR-positive KB xenografts; assay: In vivo small animal imaging, FR+ KB cell xenografts; set-up: species or system mice; settings: KB xenograft competition group, 100× excess folic acid
Experimental: (§3) Subcutaneous tumor models were established using FR^+ KB cell xenografts and FR A549 cell xenografts. The A549 xenograft model served as the negative control group, while a competition group was included to validate the in vivo targeting specificity of the probes toward tissues with high folate receptor expression. When tumor volumes reached 300-400 mm^3, the following treatments were administered via tail vein injection: • Blank control group: 100 μL saline; • Experimental groups: respective probes (10 nmol, dissolved in 100 μL saline); • Competition group: pre-injection of 100× excess folic acid ([…] in 100 μL saline) 15 minutes prior to probe administration (10 nmol in 100 μL saline).
(§4) Whole-body fluorescence imaging was performed using an IVIS imaging system with 750-800 nm excitation light at 2, 4, 8, 12, 24, and 48 hours post-injection. At 8 hours after systemic imaging, the mice were euthanized, and organs were collected for ex vivo tissue biodistribution analysis using the IVIS system.
The in vivo imaging capability of the GT-IR series compounds was evaluated in the FR^+ KB cell xenograft model following the same experimental procedure. Imaging was performed at 8 hours post-injection using the IVIS system with 750-800 nm excitation light. After euthanasia, organs were collected and subjected to ex vivo biodistribution analysis.

[3] = test system: FR-negative A549 xenograft; assay: In vivo small animal imaging, FR-negative A549 cell xenografts; set-up: species or system mice; settings: A549 xenograft negative control group, 10 nmol tail vein
Experimental: as §3, §4

Compound: Nc1nc2ncc(CNc3ccc(C(=O)N[C@@H](CCC(=O)O)C(=O)O)cc3)nc2c(=O)[nH]1 [folic acid]
Kd (folate receptors): ~1 nM

binding affinity for FRα (rank order within GT-NIR series) (FRα): highest binding affinity
binding affinity for FRβ (rank order within GT-NIR series) (FRβ): highest binding affinity
Compound: CC1(C)C(/C=C/C2=C(Oc3ccc(C[C@H](NC(=O)c4ccc(CCCCc5cc6c(=O)[nH]c(N)nc6[nH]5)s4)C(=O)O)cc3)C(=C/C=C3/N(CCCCS(=O)(=O)O)c4ccccc4C3(C)C)/CCC2)=[N+](CCCCS(=O)(=O)O)c2ccccc21 [GT-NIR-5]

Compound: CC1(C)C(/C=C/C2=C(Oc3ccc(C[C@H](NC(=O)c4ccc(NCc5cnc6nc(N)[nH]c(=O)c6n5)cc4)C(=O)[O-])cc3)C(=C/C=C3\N(CCCCS(=O)(=O)[O-])c4ccc(S(=O)(=O)[O-])cc4C3(C)C)/CCC2)=[N+](CCCCS(=O)(=O)[O-])c2ccc(S(=O)(=O)[O-])cc21.[H+].[H+].[H+].[H+] [OTL38]
tumor illumination and dye accumulation [1]: illuminates tumor tissue at significant depths

Compound: CC1(C)C(/C=C/C2=C(Oc3ccc(C[C@H](NC(=O)CNC(=O)Cc4cc5c(=O)[nH]c(N)nc5[nH]4)C(=O)O)cc3)C(=C/C=C3/N(CCCCS(=O)(=O)O)c4ccccc4C3(C)C)/CCC2)=[N+](CCCCS(=O)(=O)[O-])c2ccccc21 [GT-NIR-1]
accumulation in folate receptor-negative cells (A549 cells): no accumulation was observed
accumulation in folate receptor-negative cells (M1 macrophages): no accumulation was observed
cell entry / fluorescence imaging by confocal microscopy (FRβ (in M2 macrophages)): successfully entered cells via targeting folate receptors
cell entry / fluorescence imaging by confocal microscopy (FRα (in KB cells)): successfully entered cells via targeting folate receptors

clearance from the body [2]: rapidly cleared from the body
clearance from the body [3]: rapidly cleared from the body
Compound: CC1(C)C(/C=C/C2=C(Oc3ccc(C[C@H](NC(=O)c4ccc(CCCCc5cc6c(=O)[nH]c(N)nc6[nH]5)cc4)C(=O)O)cc3)C(=C/C=C3/N(CCCCS(=O)(=O)O)c4ccccc4C3(C)C)/CCC2)=[N+](CCCCS(=O)(=O)[O-])c2ccccc21 [GT-NIR-4]
targeted tumor imaging, whole-body fluorescence [2]: no targeted tumor imaging was observed
targeted tumor imaging, whole-body fluorescence [3]: no targeted tumor imaging was observed
